{"source": "patent US10457662B2", "about": "“Substituted amides for treating and preventing cancer” (The Regents of the University of Michigan, priority 2015, dated 2019)", "key": {"MiaPaCa-2 cells": {"test_system": "MiaPaCa-2 cells", "test": "Bru-seq analysis of RNA synthesis in MiaPaCa-2", "format": "cell-based", "conditions": "1 μM", "description": "In order to understand the mechanism of action for QN523 in pancreatic cancer, Bru-seq was performed to evaluate global changes in gene synthesis after QN523 treatment. […] During this time, the cells begin initiating cascade of pharmacological events unique to these compounds. However, cell death pathways will be initiated at later time points well beyond 24 hrs. Therefore, the Bru-seq experiments were performed after 24 hrs drug (1 μM) exposure. Using RPKM>0.5, gene size >300 bp as the cut off values to eliminate background noises, there were totally 8521 expressed genes in the QN523 and DMSO control samples out of around 22,000 genes in the reference genome.\nBru-seq data from QN523 treatment (1 uM, 24 h) and vehicle controls in MiaPaCa-2 was processed by filtering for genes with RPKM>0.5, gene size >300 bp. Expressed genes were then preranked according to fold change comparing to control and subjected to analysis."}, "MiaPaCa-2 xenograft": {"test_system": "MiaPaCa-2 xenograft", "test": "MiaPaCa-2 xenograft in NOD/SCID mice", "format": "in vivo", "description": "FIG. 2A-E: QN523 inhibits tumor growth of MiaPaCa-2 xenograft without systemic cytotoxicity. A) Tumor volume of MiaPaCa-2 xenograft of vehicle or QN523 treated mice. MiaPaCa-2 xenograft was established in NOD/SCID mice. When tumor size reached 100 mm^3, mice were randomized into vehicle control group (n=5) or treatment group (n=5). QN523 was given by i.p. injection five times a week at 10 mg/kg from day 1 to day 9, then at 20 mg/kg from day 10 to day 44. B) Body weight of vehicle of QN523 treated mice. Representative micrographs of hematoxylin and eosin (H&E)-stained organ sections. Images were taken with Olympus IX83 inverted microscope at 20× magnification. […] D) Tumor volumes of study continued after data shown in panel A. QN523 was given at 20 mg/kg five times a week until day 44. Three mice from each group were euthanized for tissue analysis. Two mice remained in each group after day 44 and QN523 dose was increased to 30 mg/kg from day 45, then to 40 mg/kg from day 51 to day 60. E) Body weight of engrafted mice was not affected by QN523 treatment at 10-40 mg/kg. Error bars indicate Mean±SEM.\nTo further evaluate the therapeutic potentials of QN523 in pancreatic cancer, MiaPaCa-2 xenograft were implanted in NOD/SCID mice. When tumor size reached 100 mm^3, mice were randomized to either vehicle control (n=5) or QN523 treatment (n=5) group. QN523 was initially given at 10 mg/kg with intraperitoneal administration."}}, "note": "“Also recorded” adds a separate entry of the source.", "data": [{"molecule": "O=C(Nc1cccc2cccnc12)c1cnccn1", "note": "[QN523, Pyrazine-2-carboxylic acid quinolin-8-ylamide]", "values": [{"measurement": "number of genes downregulated", "setting": "MiaPaCa-2 cells; 24 h, of 8521 expressed genes", "result": 123, "unit": "genes"}, {"measurement": "number of genes upregulated more than two fold", "setting": "MiaPaCa-2 cells; 24 h, of 8521 expressed genes", "result": 275, "unit": "genes"}, {"measurement": "Fold Change ATF3", "setting": "MiaPaCa-2 cells; RNA synthesis, 24 h vs control", "result": 22.1, "unit": "fold"}, {"measurement": "Fold Change AURKAIP1", "setting": "MiaPaCa-2 cells; RNA synthesis, 24 h vs control", "result": "−2.3", "unit": "fold"}, {"measurement": "Fold Change C9orf140", "setting": "MiaPaCa-2 cells; RNA synthesis, 24 h vs control", "result": "−2.5", "unit": "fold"}, {"measurement": "Fold Change C17orf62", "setting": "MiaPaCa-2 cells; RNA synthesis, 24 h vs control", "result": "−2.5", "unit": "fold"}, {"measurement": "Fold Change C19orf60", "setting": "MiaPaCa-2 cells; RNA synthesis, 24 h vs control", "result": "−2.3", "unit": "fold"}, {"measurement": "Fold Change C19orf76", "setting": "MiaPaCa-2 cells; RNA synthesis, 24 h vs control", "result": "−2.3", "unit": "fold"}, {"measurement": "Fold Change CCDC85C", "setting": "MiaPaCa-2 cells; RNA synthesis, 24 h vs control", "result": "−2.4", "unit": "fold"}, {"measurement": "Fold Change CCNG2", "setting": "MiaPaCa-2 cells; RNA synthesis, 24 h vs control", "result": 6.6, "unit": "fold"}, {"measurement": "Fold Change CD55", "setting": "MiaPaCa-2 cells; RNA synthesis, 24 h vs control", "result": 6.3, "unit": "fold"}, {"measurement": "Fold Change CXCL3", "setting": "MiaPaCa-2 cells; RNA synthesis, 24 h vs control", "result": 11.1, "unit": "fold"}, {"measurement": "Fold Change DDIT3", "setting": "MiaPaCa-2 cells; RNA synthesis, 24 h vs control", "result": 10.7, "unit": "fold"}, {"measurement": "Fold Change DNAJB9", "setting": "MiaPaCa-2 cells; RNA synthesis, 24 h vs control", "result": 7.8, "unit": "fold"}, {"measurement": "Fold Change FAM129A", "setting": "MiaPaCa-2 cells; RNA synthesis, 24 h vs control", "result": 16.0, "unit": "fold"}, {"measurement": "Fold Change FASN", "setting": "MiaPaCa-2 cells; RNA synthesis, 24 h vs control", "result": "−2.4", "unit": "fold"}, {"measurement": "Fold Change GABARAPL1", "setting": "MiaPaCa-2 cells; RNA synthesis, 24 h vs control", "result": 8.2, "unit": "fold"}, {"measurement": "Fold Change HERPUD1", "setting": "MiaPaCa-2 cells; RNA synthesis, 24 h vs control", "result": 10.0, "unit": "fold"}, {"measurement": "Fold Change HMOX1", "setting": "MiaPaCa-2 cells; RNA synthesis, 24 h vs control", "result": 13.6, "unit": "fold"}, {"measurement": "Fold Change HPDL", "setting": "MiaPaCa-2 cells; RNA synthesis, 24 h vs control", "result": "−2.4", "unit": "fold"}, {"measurement": "Fold Change HSPA5", "setting": "MiaPaCa-2 cells; RNA synthesis, 24 h vs control", "result": 7.9, "unit": "fold"}, {"measurement": "Fold Change LOC344887", "setting": "MiaPaCa-2 cells; RNA synthesis, 24 h vs control", "result": 16.7, "unit": "fold"}, {"measurement": "Fold Change MAP1LC3B", "setting": "MiaPaCa-2 cells; RNA synthesis, 24 h vs control", "result": 6.9, "unit": "fold"}, {"measurement": "Fold Change MXD3", "setting": "MiaPaCa-2 cells; RNA synthesis, 24 h vs control", "result": "−2.3", "unit": "fold"}, {"measurement": "Fold Change NAT14", "setting": "MiaPaCa-2 cells; RNA synthesis, 24 h vs control", "result": "−2.4", "unit": "fold"}, {"measurement": "Fold Change OSGIN1", "setting": "MiaPaCa-2 cells; RNA synthesis, 24 h vs control", "result": 8.0, "unit": "fold"}, {"measurement": "Fold Change PRKCDBP", "setting": "MiaPaCa-2 cells; RNA synthesis, 24 h vs control", "result": "−2.3", "unit": "fold"}, {"measurement": "Fold Change RANGRF", "setting": "MiaPaCa-2 cells; RNA synthesis, 24 h vs control", "result": "−2.3", "unit": "fold"}, {"measurement": "Fold Change RNASEH2C", "setting": "MiaPaCa-2 cells; RNA synthesis, 24 h vs control", "result": "−2.3", "unit": "fold"}, {"measurement": "Fold Change RPL23AP32", "setting": "MiaPaCa-2 cells; RNA synthesis, 24 h vs control", "result": "−2.3", "unit": "fold"}, {"measurement": "Fold Change SAT1", "setting": "MiaPaCa-2 cells; RNA synthesis, 24 h vs control", "result": 7.2, "unit": "fold"}, {"measurement": "Fold Change SCARNA10", "setting": "MiaPaCa-2 cells; RNA synthesis, 24 h vs control", "result": "−2.4", "unit": "fold"}, {"measurement": "Fold Change SEMA6B", "setting": "MiaPaCa-2 cells; RNA synthesis, 24 h vs control", "result": "−2.4", "unit": "fold"}, {"measurement": "Fold Change SLC37A4", "setting": "MiaPaCa-2 cells; RNA synthesis, 24 h vs control", "result": "−2.3", "unit": "fold"}, {"measurement": "Fold Change SLFN5", "setting": "MiaPaCa-2 cells; RNA synthesis, 24 h vs control", "result": 10.1, "unit": "fold"}, {"measurement": "Fold Change TERC", "setting": "MiaPaCa-2 cells; RNA synthesis, 24 h vs control", "result": "−2.4", "unit": "fold"}, {"measurement": "Fold Change THAP11", "setting": "MiaPaCa-2 cells; RNA synthesis, 24 h vs control", "result": "−2.5", "unit": "fold"}, {"measurement": "Fold Change TRIB3", "setting": "MiaPaCa-2 cells; RNA synthesis, 24 h vs control", "result": 14.3, "unit": "fold"}, {"measurement": "Fold Change UPP1", "setting": "MiaPaCa-2 cells; RNA synthesis, 24 h vs control", "result": 18.4, "unit": "fold"}, {"measurement": "Fold Change WIPI1", "setting": "MiaPaCa-2 cells; RNA synthesis, 24 h vs control", "result": 15.3, "unit": "fold"}, {"measurement": "Fold Change ZDHHC12", "setting": "MiaPaCa-2 cells; RNA synthesis, 24 h vs control", "result": "−2.4", "unit": "fold"}, {"measurement": "delay in tumor growth", "setting": "MiaPaCa-2 xenograft; 10 mg/kg i.p., day 1 to day 9", "result": "no significant delay in tumor growth"}, {"measurement": "day from which xenograft growth was delayed", "setting": "MiaPaCa-2 xenograft; 20 mg/kg i.p. from day 10, p<0.01", "result": "≥ 17", "unit": "days"}, {"measurement": "tumor growth at higher doses", "setting": "MiaPaCa-2 xenograft; 30 mg/kg from day 45, 40 mg/kg day 51 to 60, two mice", "result": "able to delay growth of the tumors"}, {"measurement": "symptoms of gross toxicity (weakness, weight loss, lethargy)", "setting": "MiaPaCa-2 xenograft; 10-20 mg/kg i.p., 44 days", "result": "No symptoms of gross toxicity"}, {"measurement": "body weight of engrafted mice", "setting": "MiaPaCa-2 xenograft; 10-40 mg/kg", "result": "not affected"}, {"measurement": "H&E stained organ sections (liver, kidney, heart, lung, spleen, pancreas)", "setting": "MiaPaCa-2 xenograft; after 44-day treatment", "result": "did not reveal major histopathological changes"}, {"measurement": "mean tumor volume", "setting": "MiaPaCa-2 xenograft; day 44, 10 then 20 mg/kg i.p. five times a week", "result": "259±38", "unit": "mm^3"}, {"measurement": "inhibition of tumor growth", "setting": "MiaPaCa-2 xenograft; day 44 versus vehicle control", "result": 80, "unit": "%"}, {"measurement": "systemic toxicity", "setting": "MiaPaCa-2 xenograft; doses as high as 40 mg/kg", "result": "no systemic toxicity"}, {"measurement": "Ki67 in tumor tissues", "setting": "MiaPaCa-2 xenograft; immunohistochemistry of xenograft sections", "result": "decreased Ki67 levels; also recorded: decreased Ki67 index"}]}]}
